# Target: T1, vanilloid receptor (Rattus norvegicus, UniProt O35433)
# T1 construct: DRG nerve cells from the primary culture of 2 days were equilibrated; endogenous in cells; host or cells: primary culture of dorsal root ganglion neurons from neonatal SD rats
# Test: 45Ca influx test in cultured neonatal rat DRG neurons, inhibition of capsaicin response
# Assay type: cell-based
# Conditions: neonatal rat DRG neurons, capsaicin 0.5 μM, 45Ca influx; read-out: Antagonist Calcium Uptake Test (IC50)
# Summary of the method: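 45Ca influx measured by scintillation counting of SDS-eluted neurons after 10 min at room temperature with test compound, 0.5 μM capsaicin (final) and 10 μCi/ml 45Ca in Ca/Mg-free HEPES-HBSS pH 7.4. Cells: primary DRG neurons from newborn SD rats, cultured 2 days with NGF and Ara-C.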
# T1 sequence (O35433 whole entry): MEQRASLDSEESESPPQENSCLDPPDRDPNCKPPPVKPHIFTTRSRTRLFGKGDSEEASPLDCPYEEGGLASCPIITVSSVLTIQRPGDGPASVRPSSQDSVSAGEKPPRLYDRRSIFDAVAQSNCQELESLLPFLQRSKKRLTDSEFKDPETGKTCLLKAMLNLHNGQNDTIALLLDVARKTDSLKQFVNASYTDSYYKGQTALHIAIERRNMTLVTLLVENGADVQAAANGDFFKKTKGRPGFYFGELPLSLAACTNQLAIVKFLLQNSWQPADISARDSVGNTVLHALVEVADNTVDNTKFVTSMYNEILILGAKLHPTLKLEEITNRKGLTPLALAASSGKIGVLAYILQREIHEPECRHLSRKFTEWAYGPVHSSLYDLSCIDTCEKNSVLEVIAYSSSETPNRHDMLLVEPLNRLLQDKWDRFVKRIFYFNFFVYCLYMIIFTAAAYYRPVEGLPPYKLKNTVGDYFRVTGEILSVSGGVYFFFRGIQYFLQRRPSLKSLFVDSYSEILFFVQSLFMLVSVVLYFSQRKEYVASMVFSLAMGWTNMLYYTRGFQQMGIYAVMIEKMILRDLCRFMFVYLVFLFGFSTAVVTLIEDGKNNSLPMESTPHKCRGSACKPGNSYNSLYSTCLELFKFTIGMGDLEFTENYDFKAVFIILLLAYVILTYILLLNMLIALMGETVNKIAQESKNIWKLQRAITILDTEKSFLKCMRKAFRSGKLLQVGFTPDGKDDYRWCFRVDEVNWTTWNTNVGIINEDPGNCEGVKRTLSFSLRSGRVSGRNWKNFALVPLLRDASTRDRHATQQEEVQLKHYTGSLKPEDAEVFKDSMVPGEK
row,IC50 [nM],SMILES
1,580,"C#Cc1cc(CNC(=O)CCc2ccc(C(F)(F)F)nc2N2CCCC2)cc(F)c1NS(C)(=O)=O [Example 91, N-(3-Ethynyl-5-fluoro-4-methanesulfonylamino-benzyl)-3-(2-pyrrolidin-1-yl-6-trifluoromethyl-pyridin-3-yl)-propionamide]"
2,590,"C#Cc1cc(CNC(=O)/C=C/c2ccc(C(F)(F)F)nc2N(C)C)cc(F)c1NS(C)(=O)=O [Example 94, 3-(2-Dimethylamino-6-trifluoromethyl-pyridin-3-yl)-N-(3-ethynyl-5-fluoro-4-methanesulfonylamino-benzyl)-acrylamide]"
3,47,"CCC(C)Nc1nc(C(F)(F)F)ccc1/C=C/C(=O)NCc1cc(F)c(NS(C)(=O)=O)c(F)c1 (stereo not shown) [Example 129, 3-(2-sec-Butylamino-6-trifluoromethyl-pyridin-3-yl)-N-(3,5-difluoro-4-methanesulfonylamino-benzyl)-acrylamide]"
4,85,"CC(C)Cc1nc(C(F)(F)F)ccc1/C=C/C(=O)NCc1cc(F)c(NS(C)(=O)=O)c(F)c1 [Example 226, N-(3,5-Difluoro-4-methanesulfonylamino-benzyl)-3-(2-isobutyl-6-trifluoromethyl-pyridin-3-yl)-acrylamide]"
5,88,"CCC(C)Nc1nc(C(F)(F)F)ccc1/C=C/C(=O)NCc1cc(F)c(NS(C)(=O)=O)c(C#N)c1 (stereo not shown) [Example 124, 3-(2-sec-Butylamino-6-trifluoromethyl-pyridin-3-yl)-N-(3-cyano-5-fluoro-4-methanesulfonylamino-benzyl)-acrylamide]"
6,> 10000,C#Cc1cc(CNC(=O)COc2ccc(C(C)(C)C)nc2)cc(F)c1NS(C)(=O)=O [Examples 34]
7,780,"CS(=O)(=O)Nc1ccc(CNC(=O)/C=C/c2ccc(C(F)(F)F)nc2-c2cccc(F)c2)cc1F [Example 179, N-(3-Fluoro-4-methanesulfonylamino-benzyl)-3-[2-(3-fluoro-phenyl)-6-trifluoromethyl-pyridin-3-yl]-acrylamide]"
8,2100,"COc1nc(C(F)(F)F)ccc1/C=C/C(=O)NCc1ccc(NS(C)(=O)=O)c(F)c1 [Example 60, N-(3-Fluoro-4-methanesulfonylamino-benzyl)-3-(2-methoxy-6-trifluoromethyl-pyridin-3-yl)-acrylamide]"
9,> 1000,"C#Cc1cc(CNC(=O)/C=C/c2ccc(C(F)(F)F)nc2-c2cccc(OC)c2)cc(F)c1NS(C)(=O)=O [Example 125, N-(3-Ethynyl-5-fluoro-4-methanesulfonylamino-benzyl)-3-[2-(3-methoxy-phenyl)-6-trifluoromethyl-pyridin-3-yl]-acrylamide]"
10,810,"C#Cc1cc(CNC(=O)C#Cc2ccc(C(F)(F)F)nc2NCCCC)cc(F)c1NS(C)(=O)=O [Example 260, 3-(2-Butylamino-6-trifluoromethyl-pyridin-3-yl)-propynoic acid, 3-ethynyl-5-fluoro-4-methanesulfonylamino-benzylamide]"
11,76,"C#Cc1cc(CNC(=O)/C=C/c2ccc(C(F)(F)F)nc2NCc2ccccc2)cc(F)c1NS(C)(=O)=O [Example 196, 3-(2-Benzylamino-6-trifluoromethyl-pyridin-3-yl)-N-(3-ethynyl-5-fluoro-4-methanesulfonylamino-benzyl)-acrylamide]"
12,1300,CC(C)(C)c1ccc(/C=C/C(=O)NCc2ccc(NS(C)(=O)=O)c(F)c2)cn1 [Examples 1]
13,5900,"CS(=O)(=O)Nc1c(F)cc(CNC(=O)/C=C/c2ccc(C(F)(F)F)nc2N2CCOCC2)cc1C#N [Example 103, N-(3-Cyano-5-fluoro-4-methanesulfonylamino-benzyl)-3-(2-morpholin-4-yl-6-trifluoromethyl-pyridin-3-yl)-acrylamide]"

# More lines, now with the values behind:
row,SMILES,IC50 [nM]
1,"CC(C)Oc1nc(C(F)(F)F)ccc1/C=C/C(=O)NCc1cc(F)c(NS(C)(=O)=O)c(C#N)c1 [Example 109, N-(3-Cyano-5-fluoro-4-methanesulfonylamino-benzyl)-3-(2-isopropoxy-6-trifluoromethyl-pyridin-3-yl)-acrylamide]",150
2,"C[C@@H](NC(=O)/C=C/c1ccc(C(F)(F)F)nc1NCc1ccccc1)c1ccc(NS(C)(=O)=O)c(F)c1 [Example 195, (R)-3-(2-Benzylamino-6-trifluoromethyl-pyridin-3-yl)-N-[1-(3-fluoro-4-methanesulfonylamino-phenyl)-ethyl]-acrylamide]",67
3,"CCC/C(=C/C(=O)N[C@H](C)c1cc(F)c(NS(C)(=O)=O)c(F)c1)c1ccc(C(F)(F)F)nc1CCC [Example 277, (Z)-3-(2-Propyl-6-trifluoromethyl-pyridin-3-yl)-hex-2-enoic acid [1-(3,5-difluoro-4-methanesulfonylamino-phenyl)-ethyl]-amide]",320
4,"CC(C)(C)c1ccc(/C=C/C(=O)NCc2cc(F)c(NS(C)(=O)=O)c(F)c2)cn1 [Example 39, 3-(6-tert-Butyl-pyridin-3-yl)-N-(3,5-difluoro-4-methanesulfonylamino-benzyl)-acrylamide]",1600
5,"Cc1cc(CNC(=O)/C=C/c2ccc(C(F)(F)F)nc2-c2cccc(F)c2)ccc1NS(C)(=O)=O [Example 182, 3-[2-(3-Fluoro-phenyl)-6-trifluoromethyl-pyridin-3-yl]-N-(4-methanesulfonylamino-3-methyl-benzyl)-acrylamide]",400
6,CCC/C(=C\C(=O)NCc1ccc(NS(C)(=O)=O)c(Cl)c1)c1ccc(C(F)(F)F)nc1CCC [Example 272],740
7,"CCC(C)Cc1nc(C(F)(F)F)ccc1/C=C/C(=O)NCc1ccc(NS(C)(=O)=O)c(F)c1 (stereo not shown) [Example 151, N-(3-Fluoro-4-methanesulfonylamino-benzyl)-3-[2-(2-methyl-butyl)-6-trifluoromethyl-pyridin-3-yl]-acrylamide]",150
8,"CCC/C(=C\C(=O)N[C@H](C)c1cc(F)c(NS(C)(=O)=O)c(F)c1)c1ccc(C(F)(F)F)nc1CCC [Example 278, (E)-3-(2-Propyl-6-trifluoromethyl-pyridin-3-yl)-hex-2-enoic acid [1-(3,5-difluoro-4-methanesulfonylamino-phenyl)-ethyl]-amide]",160
9,"C#Cc1cc(CNC(=O)/C=C/c2ccc(C(F)(F)F)nc2Sc2ccccc2)cc(F)c1NS(C)(=O)=O [Example 139, N-(3-Ethynyl-5-fluoro-4-methanesulfonylamino-benzyl)-3-(2-phenylthio-6-trifluoromethyl-pyridin-3-yl)-acrylamide]",340
10,"C#Cc1cc(CNC(=O)/C=C/c2ccc(C(F)(F)F)nc2CCCCC)cc(F)c1NS(C)(=O)=O [Example 197, N-(3-Ethynyl-5-fluoro-4-methanesulfonylamino-benzyl)-3-(2-pentyl-6-trifluoromethyl)-pyridin-3-yl-acrylamide]",65
11,"C[C@@H](NC(=O)/C=C/c1ccc(C(F)(F)F)nc1CCc1ccccc1)c1cc(F)c(NS(C)(=O)=O)c(F)c1 [Example 236, (R)—N-[1-(3,5-Difluoro-4-methanesulfonylamino-phenyl)-ethyl]-3-(2-phenethyl-6-trifluoromethyl-pyridin-3-yl)-acrylamide]",49
12,"C#Cc1cc(CNC(=O)/C=C/c2ccc(C(F)(F)F)nc2N(C)CCC)cc(F)c1NS(C)(=O)=O [Example 159, N-(3-Ethynyl-5-fluoro-4-methanesulfonylamino-benzyl)-3-[2-(N-methyl-N-propyl-amino)-6-trifluoromethyl-pyridin-3-yl]-acrylamide]",270
